Paper PMC11585353, “Metatranscriptomics-guided discovery and characterization of a polyphenol-metabolizing gut microbial enzyme” (Cell host & microbe, 2024)

System: T1, Gp Hcdh (Unk-9; G. pamelaeae HCA dehydroxylase)
T1 construct: native untagged enzyme purified from G. pamelaeae 3C grown with HCA (ammonium sulfate, HIC, AEC, SEC); two subunits; catalytic subunit 770 aa; one Mo per protein (bis-MGD); with Hydrocaffeic acid dehydroxylase accessory subunit
Assay: continuous spectrophotometric assay, methyl viologen oxidation at […] nm, Michaelis-Menten fit of initial rates
Assay type: biochemical, Gordonibacter pamelaeae
Details: 100 nM enzyme, anaerobic, 50 mM MOPS pH 7.0, 300 mM NaCl, 200 uM methyl viologen, 100 uM sodium dithionite, HCA 0.0625-4 mM

Molecule `O=C(O)CCc1ccc(O)c(O)c1` [HCA, 3,4-dihydroxyhydrocinnamic acid] has a Km of 240 µM.
